Results reported in patent US20080026073A1, “METHOD AND COMPOSITION FOR LITHIUM ADDITIVE IN TREATMENT OF GLUTAMATE TOXICITY” (priority 2006, published 2008).

Test system: retinal ganglion cells
Assay: NMDA-induced glutamate toxicity mouse model for glaucoma: count of surviving retinal ganglion cells after oral feeding
Assay type: in vivo, mice
Details: for survival efficacy (percent of retinal ganglion cells that survive relative to no treatment): Example 3, FIG. 3, separate mouse pools

O=C([O-])c1cc(=O)[nH]c(=O)[nH]1.[Li+] [Lithium, lithium orotate]
increase in the surviving ganglion cells (Example 1, FIG. 1, mice, oral ingestion, human equivalent dosage Lithium 5.8 mg lithium orotate per day, St. Johns Wort 2-4 grams per day): about 15% | survival rate of retinal ganglion cells (Example 2, FIG. 2, mice, gavage eight days, intravitreal NMDA 150 mM 0.5 microliter after six days, Li orotate 63 μg/day, herb 32 mg per mouse per day): about 15% | survival efficacy (percent of retinal ganglion cells that survive relative to no treatment) (1/5th the dosage, human equivalent 1.16 mg lithium orotate): approximately 13% | survival efficacy (percent of retinal ganglion cells that survive relative to no treatment) (5 times the dosage, human equivalent 29 mg lithium orotate): approximately 8%
